Values of other authors, collected in patent US9974685B2, “Drug delivery system and methods of treating open angle glaucoma and ocular hypertension” (Mati Therapeutics, Inc., priority 2011, dated 2018).

Legend:
[1] = test system: rabbits; settings: twice-daily ocular instillation, doses up to 50 μg per eye for 52 weeks (100 μg/eye/day)
[2] = test system: cynomolgus monkeys; settings: doses up to 50 μg/eye twice daily (100 μg/eye/day), 52 weeks, not judged to be deleterious
[3] = test system: healthy volunteers; settings: 28 healthy volunteers; 1 drop of 50 μg/mL 4 times daily for 2 weeks; resolved spontaneously without cessation of treatment

solubility in organic solvents (acetone, ethanol, ethyl acetate, isopropanol, methanol and octanol): freely soluble
solubility in acetonitrile (acetonitrile): very soluble
solubility in water (water): practically insoluble
Compound: CC(C)OC(=O)CCC/C=C\C[C@@H]1[C@@H](CC[C@@H](O)CCc2ccccc2)[C@H](O)C[C@@H]1O [Latanoprost, isopropyl-(Z)-7 [(1R,2R,3R,5S)3,5-dihydroxy-2-[(3R)-3-hydroxy-5-phenylpentyl]cyclopentyl]-5-heptenoate]
adverse effects [1]: no adverse effects
effects observed [2]: a reversible change in the aspect of the palpebral fissure and a non-reversible increase in iris pigmentation
ocular effects during the 4-dose regimen [3]: transient photophobia, cells, and mild flare were common
